Source: patent US11071788B2, “Antibody drug conjugates of kinesin spindel protein (KSP) inhibitors with antiB7H3-antibodies” (BAYER PHARMA AKTIENGESELLSCHAFT, priority 2015, dated 2021)
Structures can show the parent of a compound that is named as a salt.

Legend:
[1] = molecular target: motor domain of the human kinesin spindle protein KSP/Eg5 (Homo sapiens (Human), UniProt P52732); assay: Inhibition of the kinesin spindle protein KSP/Eg5 (ATPase, malachite green); assay type: biochemical; details: 10 nM KSP motor domain, microtubuli, 500 μM ATP, 2 h RT
Experimental: The motor domain of the human kinesin spindle protein KSP/Eg5 (tebu-bio/Cytoskeleton Inc, No. 027EG01-XL) was incubated in a concentration of 10 nM with microtubuli (bovine or porcine, tebu-bio/Cytoskeleton Inc) stabilized with 50 μg/ml taxol (Sigma No. T7191-5MG) for 5 min at RT in 15 mM PIPES, pH 6.8 (5 mM MgCl2 and 10 mM DTT, Sigma). […] Incubation was at RT for 2 h. ATPase activity was detected by detecting the inorganic phosphate formed using malachite green (Biomol). […] The positive controls used were monastrol (Sigma, M8515-1 mg) and ispinesib (AdooQ Bioscience A10486). The individual data of the dose-activity curve are eight-fold determinations. The IC50 values are means of two independent experiments.

[2] = tested on: NCI-H292; assay: Cytotoxicity MTT assay, NCI-H292; assay type: cell-based, human
Text: (§1) Table 2 below lists the IC50 values of representative working examples from the assay described and the corresponding cytotoxicity data (MTT assay).

[3] = tested on: KPL4; assay: Cytotoxicity MTT assay, KPL4; assay type: cell-based
Text: as §1

[4] = tested on: Caco-2 cells; assay: Cell permeability flux assay using Caco-2 cells; assay type: in vitro ADME; details: for Papp (B-A): Caco-2, 2 hours incubation; for Efflux ratio: ratio of Papp (B-A) to Papp (A-B), Caco-2
[5] = Homo sapiens, NCI-H292, MTT assay

motor domain of the human kinesin spindle protein KSP/Eg5, sequence (P52732 18-359): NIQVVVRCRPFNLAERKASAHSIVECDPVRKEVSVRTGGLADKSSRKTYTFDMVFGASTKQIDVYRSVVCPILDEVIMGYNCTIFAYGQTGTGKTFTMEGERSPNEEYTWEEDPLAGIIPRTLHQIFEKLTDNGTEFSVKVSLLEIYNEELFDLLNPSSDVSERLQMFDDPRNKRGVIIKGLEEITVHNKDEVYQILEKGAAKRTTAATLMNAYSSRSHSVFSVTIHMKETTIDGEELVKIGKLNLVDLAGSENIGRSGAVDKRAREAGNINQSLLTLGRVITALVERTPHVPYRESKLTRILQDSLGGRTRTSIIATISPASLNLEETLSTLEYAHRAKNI

Structure (SMILES)	IC50 [2, 5] [nM]	IC50 ([3]; KPL4, MTT assay) [nM]	further results
CC(C)(C)[C@H](c1cc(-c2cc(F)ccc2F)cn1Cc1ccccc1)N(CC[C@H](N)C(=O)NCCOCCNC(=O)CC(SC[C@H](N)C(=O)O)C(=O)O)C(=O)CO (some centres unmarked) [Example M5]	–	–	IC50 [1]: 0.457 nM; IC50 ([2]; MTT assay): 79.4 nM; IC50 ([3]; MTT assay): 222 nM; Papp (B-A) [4]: 2.03 ×10⁻⁶ cm/s; Efflux ratio [4]: 26.5
CC(C)(C)[C@H](c1cc(-c2cc(F)ccc2F)cn1Cc1ccccc1)N(CC[C@H](N)C(=O)NCCOCCN1C(=O)CC(SC[C@H](N)C(=O)O)C1=O)C(=O)CO (stereo partly drawn) [Example M4, S-(1-{2-[2-({(2S)-2-Amino-4-[{(1R)-1-[1-benzyl-4-(2,5-difluorophenyl)-1H-pyrrol-2-yl]-2,2-dimethylpropyl}(glycoloyl)amino]butanoyl}amino)ethoxy]ethyl}-2,5-dioxopyrrolidin-3-yl)-L-cysteine/trifluoroacetic acid (1:1)]	44.3	176	–
CC(C)(C)[C@H](c1cc(-c2cc(F)ccc2F)cn1Cc1ccccc1)N(CC[C@H](N)C(=O)NCCNC(=O)CNC(=O)CC(SC[C@H](N)C(=O)O)C(=O)O)C(=O)CO (some centres unmarked) [Example M2]	–	–	IC50 ([2]; MTT assay): 204 nM; IC50 ([3]; MTT assay): 163 nM; Papp (B-A) [4]: 0.48 ×10⁻⁶ cm/s
CC(C)(C)[C@H](c1cc(-c2cc(F)ccc2F)cn1Cc1ccccc1)N(CC[C@H](N)C(=O)NCCNC(=O)CSC[C@H](N)C(=O)O)C(=O)CO [Example M7, S-(2-{[2-({(2S)-2-Amino-4-[{(1R)-1-[1-benzyl-4-(2,5-difluorophenyl)-1H-pyrrol-2-yl]-2,2-dimethylpropyl}(glycoloyl)amino]butanoyl}amino)ethyl]amino}-2-oxoethyl)-L-cysteine/trifluoroacetic acid (1:1)]	22.2	92.5	–
CC(C)(C)[C@H](c1cc(-c2cc(F)ccc2F)cn1Cc1ccccc1)N(CC[C@H](N)C(=O)NCCC(=O)N[C@H](CCC(=O)O)C(=O)O)C(=O)CO [Example M24, N-{(2S)-2-Amino-4-[{(1R)-1-[1-benzyl-4-(2,5-difluorophenyl)-1H-pyrrol-2-yl]-2,2-dimethylpropyl}(glycoloyl)amino]butanoyl}-beta-alanyl-D-glutamic acid-trifluoroacetic acid]	167	500	–
CC(C)(C)[C@H](c1cc(-c2cc(F)ccc2F)cn1Cc1ccccc1)N(CCCN)C(=O)CSC[C@H](NC(=O)CCOCCOCCOCCOCCNC(=O)CCNC(=O)CC(SC[C@H](N)C(=O)O)C(=O)O)C(=O)O (some centres unmarked) [Example M10]	–	–	IC50 [1]: 0.47 nM; IC50 ([2]; MTT assay): 303 nM; IC50 ([3]; MTT assay): 226 nM
CC(C)(C)[C@H](c1cc(-c2cc(F)ccc2F)cn1Cc1ccccc1)N(CC[C@H](N)C(=O)NCCNC(=O)CNC(=O)C(CC(=O)O)SC[C@H](N)C(=O)O)C(=O)CO (mixture of isomers) [Example M27, 4-[(2-{[2-({(2S)-2-Amino-4-[{(1R)-1-[1-benzyl-4-(2,5-difluorophenyl)-1H-pyrrol-2-yl]-2,2-dimethylpropyl}(glycoloyl)amino]butanoyl}amino)ethyl]amino}-2-oxoethyl)amino]-3-{[(2R)-2-amino-2-carboxyethyl]sulfanyl}-4-oxobutanoic acid-trifluoroacetic acid (1:1)]	276	–	–
CC(C)(C)[C@H](c1cc(-c2cc(F)ccc2F)cn1Cc1ccccc1)N(CC[C@H](N)C(=O)NCCC(=O)NCCCC[C@H](N)C(=O)O)C(=O)CO [Example M19, N^6—(N-{(2S)-2-Amino-4-[{(1R)-1-[1-benzyl-4-(2,5-difluorophenyl)-1H-pyrrol-2-yl]-2,2-dimethylpropyl}(glycoloyl)amino]butanoyl}-beta-alanyl)-L-lysine/trifluoroacetic acid (1:1)]	121	–	–
CC(C)(C)[C@H](c1cc(-c2cc(F)ccc2F)cn1Cc1ccccc1)N(CCCN)C(=O)CSC[C@H](NC(=O)CCOCCOCCOCCOCCNC(=O)CNC(=O)CC(SC[C@@H](N)C(=O)O)C(=O)O)C(=O)O (some centres unmarked) [Example M22]	–	–	IC50 ([2]; MTT assay): 28.9 nM; IC50 ([3]; MTT assay): 182 nM; Papp (B-A) [4]: 0.09 ×10⁻⁶ cm/s
CC(C)(C)[C@H](c1cc(-c2cc(F)ccc2F)cn1Cc1ccccc1)N(CC[C@H](N)C(=O)N[C@H](CNC(=O)CNC(=O)CC(SC[C@H](N)C(=O)O)C(=O)O)C(=O)O)C(=O)CO (some centres unmarked) [Example M3]	–	–	IC50 [1]: 1.52 nM; IC50 ([2]; MTT assay): 32.1 nM; IC50 ([3]; MTT assay): 90 nM; Papp (B-A) [4]: 0.14 ×10⁻⁶ cm/s; Efflux ratio [4]: 1.3
CC(C)(C)[C@H](c1cc(-c2cc(F)ccc2F)cn1Cc1ccccc1)N(CC[C@H](N)C(=O)NCCNC(=O)CNC(=O)CC(SC[C@H](N)C(=O)O)C(=O)O)C(=O)CO (single isomer, unassigned) [Example M13]	152	169	–
CC(C)(C)[C@H](c1cc(-c2cc(F)ccc2F)cn1Cc1ccccc1)N(CCCN)C(=O)CO [Example M9, N-(3-Aminopropyl)-N-{(1R)-1-[1-benzyl-4-(2,5-difluorophenyl)-1H-pyrrol-2-yl]-2,2-dimethylpropyl}-2-hydroxyacetamide]	–	–	IC50 ([2]; Homo sapiens, NCI-H292): 0.774 nM; IC50 ([3]; KPL4): 0.257 nM
CC(C)(C)[C@H](c1cc(-c2cc(F)ccc2F)cn1Cc1ccccc1)N(CC[C@H](N)C(=O)NCCNC(=O)CNC(=O)C(CC(=O)O)SC[C@H](N)C(=O)O)C(=O)CO (single isomer, unassigned) [Example M16]	143	195	–
CC(C)(C)[C@H](c1cc(-c2cc(F)ccc2F)cn1Cc1ccccc1)N(CCCN)C(=O)CSC[C@H](NC(=O)CCC(=O)O)C(=O)O [Example M12, 4-{[(1R)-2-({2-[(3-Aminopropyl) {(1R)-1-[1-benzyl-4-(2,5-difluorophenyl)-1H-pyrrol-2-yl]-2,2-dimethylpropyl}amino]-2-oxoethyl}sulphanyl)-1-carboxyethyl]amino}-4-oxobutanoic acid/trifluoroacetic acid (1:1)]	33	–	–
CC(C)(C)[C@H](c1cc(-c2cc(F)ccc2F)cn1Cc1ccccc1)N(CC[C@H](N)C(=O)NCCC(=O)N[C@@H](CCC(=O)O)C(=O)O)C(=O)CO [Example M23, N-{(2S)-2-Amino-4-[{(1R)-1-[1-benzyl-4-(2,5-difluorophenyl)-1H-pyrrol-2-yl]-2,2-dimethylpropyl}(glycoloyl)amino]butanoyl}-beta-alanyl-L-glutamic acid-trifluoroacetic acid (1.1)]	500	500	–
CC(C)(C)[C@H](c1cc(-c2cc(F)ccc2F)cn1Cc1ccccc1)N(CC[C@H](N)C(=O)NCCNC(=O)CNC(=O)C(CC(=O)O)SC[C@H](N)C(=O)O)C(=O)CO (single isomer, unassigned) [Example M15]	133	169	–
CC(C)(C)[C@H](c1cc(-c2cc(F)ccc2F)cn1Cc1ccccc1)N(CC[C@H](N)C(=O)NCCNC(=O)CN1C(=O)CC(SC[C@H](N)C(=O)O)C1=O)C(=O)CO (stereo partly drawn) [Example M1, S-[1-(2-{[2-({(2S)-2-Amino-4-[{(1R)-1-[1-benzyl-4-(2,5-difluorophenyl)-1H-pyrrol-2-yl]-2,2-dimethylpropyl}(glycoloyl)amino]butanoyl}amino)ethyl]amino}-2-oxoethyl)-2,5-dioxopyrrolidin-3-yl]-L-cysteine/trifluoroacetic acid (1:1)]	500	500	–
CC(C)(C)[C@H](c1cc(-c2cc(F)ccc2F)cn1Cc1ccccc1)N(CCCN)C(=O)CSC[C@H](NC(=O)CCOCCOCCOCCOCCNC(=O)CNC(=O)CC(SC[C@H](N)C(=O)O)C(=O)O)C(=O)O (stereo partly drawn) [Example M20, (1R,4R,27R,33R)-1-Amino-32-(3-aminopropyl)-33-[1-benzyl-4-(2,5-difluorophenyl)-1H-pyrrol-2-yl]-34,34-dimethyl-6,9,25,31-tetraoxo-13,16,19,22-tetraoxa-3,29-dithia-7,10,26,32-tetraazapentatriacontane-1,4,27-tricarboxylic acid/trifluoroacetic acid (1:2)]	149	213	–
CC(C)(C)[C@H](c1cc(-c2cc(F)ccc2F)cn1Cc1ccccc1)N(CC[C@H](N)C(=O)NCCNC(=O)CNC(=O)CC(SC[C@H](N)C(=O)O)C(=O)O)C(=O)CO (single isomer, unassigned) [Example M14]	–	–	IC50 ([2]; MTT assay): 174 nM; IC50 ([3]; MTT assay): 182 nM
CC(C)(C)[C@H](c1cc(-c2cc(F)ccc2F)cn1Cc1ccccc1)N(CCCN)C(=O)CSC[C@H](N)C(=O)O [Example M11, S-{2-[(3-Aminopropyl){(1R)-1-[1-benzyl-4-(2,5-difluorophenyl)-1H-pyrrol-2-yl]-2,2-dimethyl-propyl}amino]-2-oxoethyl}-L-cysteine/trifluoroacetic acid (1:2)]	0.0432	–	–
CC(C)(C)[C@H](c1cc(-c2cc(F)ccc2F)cn1Cc1ccccc1)N(CC[C@H](N)C(=O)NCCNC(=O)CC[C@H](N)C(=O)O)C(=O)CO [Example M18, N-[2-({(2S)-2-Amino-4-[{(1R)-1-[1-benzyl-4-(2,5-difluorophenyl)-1H-pyrrol-2-yl]-2,2-dimethylpropyl}(glycoloyl)amino]butanoyl}amino)ethyl]-L-glutamine/trifluoroacetic acid (1.1)]	35.5	–	–
CC(C)(C)[C@H](c1cc(-c2cc(F)ccc2F)cn1Cc1ccccc1)N(CC[C@H](N)C(=O)O)C(=O)CO [Example M17, (2S)-2-Amino-4-[{(1R)-1-[1-benzyl-4-(2,5-difluorophenyl)-1H-pyrrol-2-yl]-2,2-dimethylpropyl}(glycoloyl)amino]butanoic acid hydrochloride (1.1)]	7.35	–	–
